Measurements from patent US12465588B2, “Indole carboxamide derivative and pharmaceutical composition containing same” (KUKJE PHARMA CO., LTD., priority 2019, dated 2025).
Marks after values point to notes of the source that are not given here.

Columns and labels:
[1] = system: guinea pig model of osteoarthritis induced by MIA (monosodium iodoacetate); assay: Hind limb incapacitance test in guinea pig model of osteoarthritis induced by MIA; assay type: in vivo
Procedure: An experiment was conducted as follows in order to evaluate the efficacy of the compound according to the present invention for osteoarthritis-induced guinea pigs.
(§1) Specifically, male guinea pigs weighing about 500 g±20% from Coretech Co., Ltd. (Gyeonggi-do, Korea) were acclimated in a laboratory for 8 days, and provided chow and water ad libitum. Temperature (23±3° C.), humidity (55±15%) and light/dark cycle (12 hours, 08:00˜20:00) were controlled automatically.
(§2) Each group consisted of 10 guinea pigs. Guinea pigs were anesthetized with Zoletil 50 (VIRBAC, France, 5 mg/kg) and xylazine (Rompun®, Bayer AG, Germany, 2.5 mg/kg) and depilated at the area around the right knee with Clipper. Using a C-arm (ARCADIS Varic, SIEMENS Co.), it was confirmed that a syringe equipped with a 26 gauge needle was located in the joint cavity. 50 μL of MIA at a concentration of 60 mg/mL was administered into the joint cavity. One week after MIA administration, Compound 9 of the present invention was added to excipients (DMSO (10% by weight), Tween 80 (30% by weight), HMPC (same amount as the drug)), dissolved in water so that the total amount was 100% by weight, and orally administered to the prepared experimental animals at 10 mg/kg and 25 mg/kg, respectively. In the positive control group, GRC27864 was orally administered at 12.5 mg/kg using the same excipient, and only the excipient was orally administered to the control group. The drug was administered for 4 weeks.
(§3) The hind limb incapacitance test was performed for the behavioral evaluation weekly for 4 weeks and the inflammatory factor evaluation was performed by measuring PGE2, IL-1β, and TNF-α in blood after 4 weeks.
The hind limb weight-bearing ratios were obtained by setting up the animals at an inclination of 60 degrees in a plastic room using an incapacitance meter tester, measuring the intensity applied to each hind limb over 10 seconds, and calculating an average. Weight-bearing ratios are 50% for normal cases and up to early 30% for the cases in which a disease is induced.

[2] = system: A549 human lung cancer cells; assay: Measurement of PGE2 in IL-1β-treated A549 human lung cancer cells; assay type: cell-based; conditions: PGE2 production, A549 cell, IL-1β 1 ng/mL, 48 hours
Procedure: Samples at various concentrations were added at 24 hours after A549 human lung cancer cells were seeded. After 1 hour, IL-1β of 1 ng/mL was added. The cells were cultured for 48 hours and then the culture supernatant was collected. PGE2 of the collected supernatant was measured according to the manufacturer's instructions using a PGE2 EIA kit.

[3] = system: PGE2, IL-1β, and TNF-α in blood; assay: Inflammatory factor evaluation (ELISA) in blood of MIA osteoarthritis guinea pigs; assay type: in vivo, guinea pig; conditions: for IL-1β (ELISA analysis) / PGE2 (ELISA analysis) / TNF-α (ELISA analysis): blood, after 4 weeks
Procedure: as §1, §2, §3
The concentrations of PGE2, IL-1β, and TNF-α in blood were measured using commercially available ELISA kit after 4 weeks. The results are shown in Table 4 below and FIGS. 2 to 4. ***, ** and * represent statistical significance compared to the control group, and are P<0.001, P<0.01, and P<0.05 compared to the control group.

[4] = system: acetic acid-induced abdominal contraction mouse model; assay: Anti-pain efficacy test, acetic acid-induced abdominal contraction mouse model; assay type: in vivo; conditions: oral, 1 hour before 0.7% acetic acid i.p.; writhing counted for 10 minutes (FIG. 5)
Procedure: In order to evaluate the anti-pain efficacy of the compound according to the present invention in abdominal contraction mice, an experiment was conducted as follows.
Specifically, male ICR mice weighing about 20 to 25 g from Orient Bio Co., Ltd. (Gyeonggi-do, Korea) were acclimated in a laboratory for 7 days and provided chow and water ad libitum. Temperature (20±2° C.), humidity (40±60%) and light/dark cycle (12 hours) were controlled automatically.
Based on 10 mice per group, the control group was orally administered with an excipient (200 μL), and the positive control group was orally administered with celecoxib at 25 mg/kg. Compound 9 of the present invention was dissolved in an excipient (10% NMP (N-methyl-2-pyrrolidone), 10% ethanol, 80% polyethylene glycol 400) and administered orally at 10 and 50 mg/kg to each mouse. One hour after drug administration, 0.7% acetic acid was intraperitoneally injected at […] to induce pain. The number of writhing was measured for 10 minutes from 10 minutes after the acetic acid administration.
In this experiment, the less the number of writhing for 10 minutes, the stronger the anti-pain efficacy of the drug was evaluated. The statistical significance compared to the control group was represented as **P<0.01, *P<0.05 compared to the control group.

CC(C)C(=O)NCc1ccc(Cl)c(C(=O)Nc2ccc3c(c2)cc(C(=O)Nc2ccc(OC(F)(F)F)cc2)n3C)c1 [Compound 9, 5-(2-chloro-5-(isobutyramidomethyl)benzamido)-1-methyl-N-(4-(trifluoromethoxy)phenyl)-1H-indole-2-carboxamide]
Weight-bearing ratio ([1]; 10 mpk oral, day 0): 42.05 ± 2.99% | Weight-bearing ratio ([1]; 10 mpk oral, day 7): 39.64 ± 5.30% | Weight-bearing ratio ([1]; 10 mpk oral, day 14): 39.53 ± 6.41% | Weight-bearing ratio ([1]; 10 mpk oral, day 21): 40.16 ± 2.92% | Weight-bearing ratio ([1]; 10 mpk oral, day 28): 38.42 ± 1.52% | Weight-bearing ratio ([1]; 25 mpk oral, day 0): 39.15 ± 4.53% | Weight-bearing ratio ([1]; 25 mpk oral, day 7): 42.39 ± 3.69% | Weight-bearing ratio ([1]; 25 mpk oral, day 14): 40.65 ± 3.61% | Weight-bearing ratio ([1]; 25 mpk oral, day 21): 39.19 ± 3.15% | Weight-bearing ratio ([1]; 25 mpk oral, day 28): 39.28 ± 4.14% | weight-bearing ratios, course in words ([1]; over 4 weeks of oral administration after MIA): did not worsen after MIA administration but were maintained | IC50 [2]: 7.16 nM | inhibitory ability on inflammatory factors, in words ([3]; 25 mpk, compared with GRC27864 group): inhibited the inflammatory factor more than the group administered with the drug GRC27864 | IL-1β (ELISA analysis) ([3]; 10 mpk oral): 41.547 ± 10.683 | PGE2 (ELISA analysis) ([3]; 10 mpk oral): 9331.6 ± 2215.6 | TNF-α (ELISA analysis) ([3]; 10 mpk oral): 119.715 ± 22.898 | IL-1β (ELISA analysis) ([3]; 25 mpk oral): 34.345 ± 11.786 | PGE2 (ELISA analysis) ([3]; 25 mpk oral): 5812.4 ± 1758.8*** | TNF-α (ELISA analysis) ([3]; 25 mpk oral): 94.833 ± 22.453** | number of writhing compared to the control group [4]: significantly lower number of writhing compared to the control group
